# Entries after “also recorded” stand apart in the source; their conditions may differ.
# Experiment: Photostability test in Q-Sun Xenon Test Chamber (accelerated photodegradation), LC/MSD quantitation
# Type: physicochemical
# Settings: for percent Compound 1 remaining: 10 ppm; for effect of sorbate on photostability: 250 ppm potassium sorbate versus no photostabilizer; for effect of sorbate on photostability / rate of degradation, trend with pH: 10 ppm Compound 1 or 5 ppm Compound 2; for rate of degradation, trend with pH: no photostabilizer, pH 2.8, 4.0, 5.0, 7.1; for percent Compound 2 remaining: 5 ppm
# Procedure: Aqueous buffer solution at pH 7.1 contains 50 mM potassium dihydogen phosphate and ˜32 mM sodium hydroxide (solutions of 1.0 M hydrochloric acid and 1.0 M sodium hydroxide are used to adjust pH). Aqueous buffer solution at pH 4.0 contains 50 mM citric acid monosodium salt and ˜7.4 mM sodium hydroxide (solutions of 1.0 M hydrochloric acid and 1.0 M sodium hydroxide are used to adjust pH). Aqueous buffer solution at pH 2.8 contains 50 mM citric acid and ˜16 mM sodium hydroxide (solutions of 1.0 M hydrochloric acid and 1.0 M sodium hydroxide are used to adjust pH). Aqueous buffer solution at pH 5.0 contains 50 mM acetic acid and ˜32 mM sodium hydroxide (solutions of 1.0 M hydrochloric acid and 1.0 M sodium hydroxide are used to adjust pH). All the buffers also contained 30 ppm ethylenediaminetetraacetic acid (EDTA).
# The stock solutions of the test compounds at 10 mM for compound I and at 2000 ppm for compound II are made by dissolving the compounds in ethanol and water with 0.2% sodium bicarbonate, respectively. The solutions of the stabilizers are made by dissolving the materials in the aqueous buffers. The stock solutions are then diluted to 5 or 10 ppm with the stabilizer solutions to prepare the test solution and 10-mL aliquots of the solutions are transferred to 20-mL clear glass vial for testing.
# Accelerated photodegradation was studied using a Q-Sun Xenon Test Chamber (Q-Lab Model No. Xe-1-SC) at an irradiance setting of 350 mW/m^2 at 340 nm and temperature of 25 degrees Celsius. To put this in perspective, 24 hours of constant Q-Sun irradiation at these settings is approximately equivalent to 12.4 days of direct sunlight in the southwestern United States. At 0, 1, 2, 4, 6 and 24 hours from the beginning of the radiation, a 0.4-mL aliquot from each vial is pippeted out to a 1-mL glass insert for analysis.
# The samples are analyzed using an Agilent 1290 LC/MSD equipped with a diode-array detector (DAD). The peak areas from the MSD chromatograms are used for quantitation, and the photostability is shown by plotting the percentages of the test compound which remains intact at all time points. The peak areas from the DAD chromatograms are used for quantitation for stabilizers with concentration at […] or higher. The instrument conditions are listed below. • Column: Water Acquity HSS T3 C18 1.8 μm, 2.1×30 mm • Column Temperature: 30° C. • Auto-sampler Temperature: Room temperature • Mobile Phase A: 0.1% formic acid in water • Mobile Phase B: 0.1% formic acid in acetonitrile • Gradient: 0-1 min, linear gradient 5-50% B; 1.0-1.2 min, linear gradient 50-100% B; 1.2-2.0 min, 100% B; flow rate is 1.2 mL/min, and Post time is 0.5 min. • Injection volume: 10 uL • MSD ion source: APCI • MSD Signal settings: Positive, selected ion monitoring (SIM) at the mass of the expected molecular ions. • UV detection wavelength: 230 nm. • MSD detection start time: 0.65 min
# (§1) A Q-Sun Xenon Test Chamber (Q-Lab Model No. Xe-1-SC), which reproduces the entire spectrum of natural sunlight, was used to study the photostability of Compound 1 in various mediums (with or without photostabilizers). The equivalent sunlight exposure time for 24 hours in the Q-Sun at a constant temperature of 25° C. and irradiance of 450 mW/m^2 @ 340 nm is estimated to be equivalent to approximately 15.9 days of direct sunlight in the Southwestern United States.
# as §1, with “Compound 2” for “Compound 1”
# [1] = 250 ppm potassium sorbate, pH 4.0, after 4 hours exposure
# [2] = absence of photostabilizer, pH 7.1, after 4 hours exposure
# [3] = absence of sorbate, pH 2.8, after 4 hours exposure
# [4] = absence of sorbate, pH 4.0, after 4 hours exposure
SMILES,"percentage of Compound 1 remaining (10 ppm Compound 1, no photostabilizer, all pH values (2.8, 4.0, 5.0, 7.1), after 4 hours light exposure, 25° C.)",percent Compound 1 remaining [1],percent Compound 1 remaining [2],percent Compound 1 remaining [3],percent Compound 1 remaining [4],effect of sorbate on photostability,"rate of degradation, trend with pH","percentage of Compound 2 remaining (5 ppm Compound 2, no photostabilizer, all pH values (2.8, 4.0, 5.0, 7.1), after 4 hours light exposure, 25° C.)",percent Compound 2 remaining [1],"percent Compound 2 remaining (250 ppm potassium sorbate, pH 5.0, after 4 hours exposure)",percent Compound 2 remaining [2],percent Compound 2 remaining [3],percent Compound 2 remaining [4]
"CCCNC(=O)C(C)(C)COc1cccc2c1C(N)=NS(=O)(=O)N2 [Compound 1, 3-(4-Amino-2,2-dioxide-1H-benzo[c][1,2,6]thiadiazin-5-yloxy)-2′,2′-dimethyl-N-propylpropanamide]",less than 20%,about 47%,no compound remained,about 14%,about 10%,remarkably improved stability to photo-degradation; also recorded: significantly enhances the photostability,decreases with decreasing pH,–,–,–,–,–,–
"CC(C)CC(=O)N1CCC[C@H](COc2cccc3c2C(N)=NS(=O)(=O)N3)C1 [Compound 2, (S)-1-(3-(((4-amino-2,2-dioxido-1H-benzo[c][1,2,6]thiadiazin-5-yl)oxy)methyl)piperidin-1-yl)-3-methylbutan-1-one]",–,–,–,–,–,remarkably improved stability to photo-degradation; also recorded: significantly enhances the photostability,decreases with decreasing pH,less than 20%,about 42%,about 15%,no compound remained,about 15%,about 5%
